Test results taken from paper PMC3858267, “The Enhanced In Vivo Activity of the Combination of a MEK and a PI3K Inhibitor Correlates with [^18F]-FLT PET in Human Colorectal Cancer Xenograft Tumour-Bearing Mice” (PLoS ONE, 2013).
Like-named read-outs stand apart in the source and are kept apart here. Marks after values point to notes of the source that are not given here. Each block holds one molecule with its values, some of them ahead of it.

How the values were obtained:
[1] = Single dose PK: plasma and tumour tissue drug concentrations by HPLC in HCT116 xenograft-bearing mice; assay type: in vivo; details: for AUC: po; for AUC / GDC-0941 AUC Tumour / PD 0325901 AUC Tumour: over 24 hours, mean ± SD
Method: (§1) Blood was collected into heparinised tubes, and plasma was separated and stored at −20°C until analysed. Tumours were removed, snap frozen in liquid nitrogen and stored at −80°C prior to PK and PD analyses, as described below.
For PK analyses, drug was extracted from 60 µl aliquots of samples by protein precipitation with 9 volumes of acetonitrile (MeCN). Samples were centrifuged at 3000g for 5 minutes at 4°C, and 500 µl of the supernatant evaporated to dryness under nitrogen gas at 30°C using a Zymark Evaporator (Caliper Life Sciences Limited, Cheshire, UK). Samples were reconstituted in 100 µl HPLC mobile phase consisting of 40% acetonitrile and 60% (v/v) 0.1% formic acid pH 4.0 (v/v), and 50 µl of the supernatant applied to a 10 cm Xterra Waters 186000436 C18 3.5 µm column (Waters, Hertfordshire, UK) fitted with an in line filter. Compounds were eluted with the above mobile phase at 1 ml/min using a Waters Millennium Chromatography system (Waters, Hertfordshire, UK). Analytes were detected by UV absorbance at 275 and 315 nm, at retention times of 6.8–7.3 and 3.9–4.3 minutes for PD 0325901 and GDC-0941, respectively. For analysis of drug in tumour tissue, tumours were homogenised in 3 volumes of PBS (w/v) and 50 µl aliquots extracted with 9 volumes of MeCN, and centrifuged, evaporated and analysed as described above.

[2] = tested on: HCT116 human tumour xenografts; experiment: Anti-tumour activity (time to RTV3/RTV4) in HCT116 human tumour xenografts; assay type: in vivo, mice; details: 1 mg/kg PD 0325901, 100 mg/kg GDC-0941, alone or in combination, p.o. once daily for 14 days
Method: (§2) Animal studies were all carried out using female athymic CD1 nude mice (Charles River, Kent, UK), implanted with HCT116 or HT29 xenografts (1×10^7 cells in 50 µl media injected subcutaneously into the right flank), maintained and handled in isolators under specific pathogen-free conditions.

[3] = tested on: HT29 human tumour xenografts; experiment: Anti-tumour activity (time to RTV3/RTV4) in HT29 human tumour xenografts; assay type: in vivo, mice; details: 1 mg/kg PD 0325901, 100 mg/kg GDC-0941, alone or in combination, p.o. once daily for 14 days
Method: as §2

[4] = tested on: HCT116 human tumour xenografts; experiment: [18F]-FLT PET tumour uptake in HCT116 xenografts; assay type: in vivo, mice; details: 1 mg/kg PD 0325901, 100 mg/kg GDC-0941, alone or in combination, p.o. once daily for 2 days
Method: Before treatment and after 2 days of treatment as described above, mice bearing HCT116 human tumour xenografts (7–9 mice/group) were anaesthetised, cannulated via their tail vein and placed in the prone position on a custom-made heated bed, which held three mice at once, within a MOSAIC PET scanner (Philips, Eindhoven, NL). [^18F]-FLT was obtained from PETNET (PETNET, Nottingham, UK), and radioactivity levels were measured using a Capintec well counter (Capintec, NJ, USA). Approximately 10 MBq of [^18F]-FLT was administered intravenously and a 1 hour dynamic PET scan was performed, consisting of ten 1 minute, six 5 minute and two 10 minute time frames. Mice were recovered after scanning and continued to receive treatment for the remainder of the study. Data were analysed using Imalytics software (Philips, Aachen, Germany); a 3D region of interest was drawn around the tumour and the standardised uptake value (SUV) was calculated by dividing the tissue concentration (MBq/ml) by the injected dose (MBq)/g body weight. Mean SUV values were then plotted against time, and the area under the curve (AUC) and the percentage change in the area under the curve relative to the baseline scan was calculated.

[5] = tested on: phospho-p44/42 MAPK (Thr202/Tyr204) (ERK1/2); experiment: PD Western blot of HCT116 tumour lysates: ERK1/2 phosphorylation; assay type: in vivo, mice
Method: as §1
For PD analyses, tumours (2 to 4∼2.5 mm^3 pieces) were disaggregated in 1 ml PhosphoSafe™ extraction reagent (Merck Chemicals Ltd, Nottingham, Nottinghamshire, UK) containing a protease inhibitor cocktail (Pierce, Thermo Scientific, Rockford, Illinois, USA) at the manufacturer's recommended dilution using a Medimachine™ (BD Biosciences, Oxford, UK), centrifuged, and the supernatant removed and analysed by Western blotting. Proteins were resolved on Novex® 4–12% (w/w) Tris-glycine gels (Invitrogen Ltd, Renfrew, Paisley, UK) and electrotransferred onto Hybond C nitrocellulose membrane (GE Healthcare Life Sciences, Hatfield, Hertfordshire, UK). Membranes were incubated with phospho-4EBP1 (Thr37/46) (#2855), phospho-p44/42 MAPK (Thr202/Tyr204) (#4370), phospho-Akt (Ser473) (#4060) or phospho-S6 ribosomal protein (Ser235/236) (#4858) monoclonal antibodies obtained from Cell Signalling Technology (New England BioLabs (UK) Ltd, Hitchin, Hertfordshire, UK). Antibody binding was detected by incubation with a HRP-conjugated goat anti-rabbit polyclonal antibody (Dako, Glastrop, Denmark). Blots were developed using Pierce ECL (enhanced chemiluminescence) western blotting substrate (Thermo Scientific, Rockford, Illinois, USA), or SuperSignal® West Dura extended duration substrate (Thermo Scientific, Rockford, Illinois, USA), and Kodak X-ray film (Genetic Research Instrumentation Ltd, Braintree, Essex, UK) on a MediPhot 937 film developer (Colenta, Weiner Neustadt, Austria), then digitally scanned.

[6] = tested on: phospho-Akt (Ser473); experiment: PD Western blot of HCT116 tumour lysates: AKT phosphorylation; assay type: in vivo, mice; details: 0.25–24 hours after single p.o. dose; 1 mg/kg PD 0325901, 100 mg/kg GDC-0941 or combination (combination compared to single agent PI3K inhibitor)
Method: as §1
For PD analyses, tumours (2 to 4∼2.5 mm^3 pieces) were disaggregated in 1 ml PhosphoSafe™ extraction reagent (Merck Chemicals Ltd, Nottingham, Nottinghamshire, UK) containing a protease inhibitor cocktail (Pierce, Thermo Scientific, Rockford, Illinois, USA) at the manufacturer's recommended dilution using a Medimachine™ (BD Biosciences, Oxford, UK), centrifuged, and the supernatant removed and analysed by Western blotting. […] Antibody binding was detected by incubation with a HRP-conjugated goat anti-rabbit polyclonal antibody (Dako, Glastrop, Denmark).

[7] = tested on: phospho-S6 ribosomal protein (Ser235/236); experiment: PD Western blot of HCT116 tumour lysates: S6 phosphorylation; assay type: in vivo, mice; details: 0.25–24 hours after single p.o. dose; 1 mg/kg PD 0325901, 100 mg/kg GDC-0941 or combination (combination compared to single agent PI3K inhibitor)
[8] = tested on: phospho-4EBP1 (Thr37/46); experiment: PD Western blot of HCT116 tumour lysates: 4EBP1 phosphorylation; assay type: in vivo, mice; details: 0.25–24 hours after single p.o. dose; 1 mg/kg PD 0325901, 100 mg/kg GDC-0941 or combination (combination compared to single agent PI3K inhibitor)
[9] = tested on: HCT116 cells; design: method as in PMID 22415236; details: previously determined; read-out: in vitro GI50; cited from earlier work
[10] = design: method as in PMID 18754654, PMID 21838594; details: in mice; cited from earlier work
[11] = design: method as in PMID 20332327; details: single agent; such as retinal vein occlusion; cited from earlier work
[12] = rat, in vivo, 100 mg/kg; cited from earlier work
[13] = cited from earlier work
[14] = single p.o. dose 10 mg/kg PD 0325901+10 mg/kg GDC-0941

increase in plasma AUC with 10-fold increment in dose ([1]; GDC-0941 100 versus 10 mg/kg): 7 fold
increase in tumour AUC following a 10-fold increase in dose ([1]; GDC-0941 100 versus 10 mg/kg): 15 fold
AUC ([1]; mouse, plasma, 10 mg/kg, single p.o. dose 10 mg/kg GDC-0941 alone, read-out: GDC-0941 AUC Plasma (converted)): 5.4 µM·h
AUC ([1]; mouse, plasma, 10 mg/kg, single p.o. dose 10 mg/kg PD 0325901+10 mg/kg GDC-0941, read-out: GDC-0941 AUC Plasma (converted)): 6.33 µM·h
AUC ([1]; mouse, plasma, 100 mg/kg, single p.o. dose 100 mg/kg GDC-0941 alone, read-out: GDC-0941 AUC Plasma (converted)): 39.4 µM·h
AUC ([1]; mouse, plasma, single p.o. dose 1 mg/kg PD 0325901+10 mg/kg GDC-0941, read-out: GDC-0941 AUC Plasma (converted)): 6.55 µM·h
AUC ([1]; mouse, plasma, single p.o. dose 1 mg/kg PD 0325901+100 mg/kg GDC-0941, read-out: GDC-0941 AUC Plasma (converted)): 22.6 µM·h
AUC ([1]; mouse, plasma, single p.o. dose 10 mg/kg PD 0325901+100 mg/kg GDC-0941, read-out: GDC-0941 AUC Plasma (converted)): 58.8 µM·h
GDC-0941 AUC Tumour ([1]; single p.o. dose 1 mg/kg PD 0325901+10 mg/kg GDC-0941): 396±144^j µM.min
GDC-0941 AUC Tumour ([1]; single p.o. dose 1 mg/kg PD 0325901+100 mg/kg GDC-0941): 3196±183^h µM.min
GDC-0941 AUC Tumour ([1]; single p.o. dose 10 mg/kg GDC-0941 alone): 364±130^g µM.min
GDC-0941 AUC Tumour [1, 14]: 124±51^g,j µM.min
GDC-0941 AUC Tumour ([1]; single p.o. dose 10 mg/kg PD 0325901+100 mg/kg GDC-0941): 2649±861^i µM.min
GDC-0941 AUC Tumour ([1]; single p.o. dose 100 mg/kg GDC-0941 alone): 5422±962^h,i µM.min
Structure (SMILES): CS(=O)(=O)N1CCN(Cc2cc3nc(-c4cccc5[nH]ncc45)nc(N4CCOCC4)c3s2)CC1 [GDC-0941, 2-(1H-Indazol-4-yl)-6-(4-methanesulfonyl-piperazin-1-ylmethyl)-4-morpholin-4-yl-thieno[3,2-d]pyrimidine]
Time to RTV3, Mean ± SD [2]: 15 ± 4 days
Time to RTV3, Median ± IR [2]: 16 ± 5 days
Time to RTV4, Mean ± SD [2]: 19 ± 5 days
Time to RTV4, Median ± IR [2]: 18 ± 4 days
Time to RTV3, Mean ± SD [3]: 11 ± 9 days
Time to RTV3, Median ± IR [3]: 10 ± 6 days
Time to RTV4, Mean ± SD [3]: 13 ± 9 days
Time to RTV4, Median ± IR [3]: 10 ± 5 days
decrease in tumour [18F]-FLT uptake (SUV AUC) after 2 days versus baseline [4]: no significant difference
phosphorylation of ERK1/2 in tumour ([5]; 0.25–24 hours after single p.o. dose, 100 mg/kg GDC-0941 alone or with 1 mg/kg PD 0325901 (combination compared to single agent MEK inhibitor)): reduction
phosphorylation of AKT in tumour [6]: reduction
phosphorylation of S6 in tumour [7]: reduction
phosphorylation of 4EBP1 in tumour [8]: reduction
GI50 [9]: 1080 nM
oral bioavailability [10]: 78%

Structure (SMILES): O=C(NOC[C@H](O)CO)c1ccc(F)c(F)c1Nc1ccc(I)cc1F [PD 0325901]
increase in plasma AUC of PD 0325901 following concomitant dosing with GDC-0941 ([1]; 1 or 10 mg/kg PD 0325901 alone versus with GDC-0941): 2–3 fold
increase in plasma AUC with 10-fold increment in dose ([1]; PD 0325901 10 versus 1 mg/kg): 15 fold
tumour tissue level (undetectable, limit of detection) ([1]; all time points after 1 mg/kg PD 0325901, per g of tumour material): < 0.4 nmol/g
concentration at 24 h ([1]; mouse, plasma, oral, at 24 hours after 1 mg/kg PD 0325901, read-out: plasma level (undetectable, limit of detection)): < 100 nM
AUC ([1]; mouse, plasma, 1 mg/kg, single p.o. dose 1 mg/kg PD 0325901 alone, read-out: PD 0325901 AUC Plasma (converted)): 1.38 µM·h
AUC ([1]; mouse, plasma, 10 mg/kg, single p.o. dose 10 mg/kg PD 0325901+10 mg/kg GDC-0941, read-out: PD 0325901 AUC Plasma (converted)): 40 µM·h
AUC ([1]; mouse, plasma, 10 mg/kg, single p.o. dose 10 mg/kg PD 0325901 alone, read-out: PD 0325901 AUC Plasma (converted)): 21.6 µM·h
AUC ([1]; mouse, plasma, single p.o. dose 1 mg/kg PD 0325901+10 mg/kg GDC-0941, read-out: PD 0325901 AUC Plasma (converted)): 2.73 µM·h
AUC ([1]; mouse, plasma, single p.o. dose 1 mg/kg PD 0325901+100 mg/kg GDC-0941, read-out: PD 0325901 AUC Plasma (converted)): 3.15 µM·h
AUC ([1]; mouse, plasma, single p.o. dose 10 mg/kg PD 0325901+100 mg/kg GDC-0941, read-out: PD 0325901 AUC Plasma (converted)): 54.1 µM·h
PD 0325901 AUC Tumour [1, 14]: 399±72^d,f µM.min
PD 0325901 AUC Tumour ([1]; single p.o. dose 10 mg/kg PD 0325901 alone): 1082±232^d,e µM.min
Time to RTV3, Mean ± SD [2]: 19 ± 7 days
Time to RTV3, Median ± IR [2]: 18 ± 12 days
Time to RTV4, Mean ± SD [2]: 23 ± 8 days
Time to RTV4, Median ± IR [2]: 21 ± 11 days
Time to RTV3, Mean ± SD [3]: 10 ± 4 days
Time to RTV3, Median ± IR [3]: 10 ± 4 days
Time to RTV4, Mean ± SD [3]: 11 ± 4 days
Time to RTV4, Median ± IR [3]: 11 ± 3 days
decrease in tumour [18F]-FLT uptake (SUV AUC) after 2 days versus baseline [4]: no significant difference
phosphorylation of ERK1/2 in tumour ([5]; 3 and 6 hours after single p.o. dose of 1 mg/kg PD 0325901): completely ablate
phosphorylation of ERK1/2 in tumour ([5]; 1 hour after single p.o. dose of 1 mg/kg PD 0325901): reduce
phosphorylation of AKT in tumour [6]: no marked effect
phosphorylation of S6 in tumour [7]: no marked effect
phosphorylation of 4EBP1 in tumour [8]: no marked effect
GI50 [9]: 21 nM
toxicity in clinical trials [11]: ocular and neurological toxicity
toxicity of oral and i.v. doses [12]: non-toxic
maximum tolerated dose [13]: 25 mg/kg
